This note sets out measurements from PubChem BioAssay (NCI).

SMILES strings stand for the structures.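 Five concentrations, 48 hours, 96-well plates. Definition used: TGI = concentration required for complete inhibition of growth.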

Some test systems named below: SK-OV-3 ovarian; HL-60(TB) leukemia; 786-0 renal; K-562 leukemia; SNB-19 CNS; TK-10 renal; BT-549 breast; SF-268 CNS; LOX IMVI melanoma; MDA-MB-231 breast; UACC-257 melanoma; NCI-H522 lung; A549 NSCLC; OVCAR-3 ovarian.
Assay in all cases: inhibition of tumour cell growth, NCI panel, 48 h

As for `Cc1ccc(S(=O)(=O)NC(=O)NCC(N)=O)cc1`, the TGI with SK-OV-3 ovarian, in the assay with HL-60(TB) leukemia, in the assay with 786-0 renal, with K-562 leukemia, in the assay on SNB-19 CNS and with TK-10 renal was above 100 µM in each case. In addition, the TGI in the assay on BT-549 breast, with SF-268 CNS, with LOX IMVI melanoma, in the assay with MDA-MB-231 breast, with UACC-257 melanoma and in the assay on NCI-H522 lung was above 100 µM in each case. This compound also had a TGI with A549 NSCLC above 100 µM.

Regarding `COC(=O)C1=C(C(=O)OC)C(OO)(c2ccccc2)OC1=O` (stereo not given), the TGI in the assay on SK-OV-3 ovarian, in the assay with HL-60(TB) leukemia, with 786-0 renal, with K-562 leukemia, with SNB-19 CNS and in the assay with TK-10 renal was above 100 µM throughout. Besides, the TGI in the assay with BT-549 breast was above 100 µM; with LOX IMVI melanoma, 96 µM; in the assay with MDA-MB-231 breast it was above 100 µM; in the assay on OVCAR-3 ovarian, above 100 µM; in the assay on UACC-257 melanoma it was above 100 µM; in the assay on NCI-H522 lung it was above 100 µM. Moreover, in the assay on A549 NSCLC, the TGI was above 100 µM.

`COCCNC1CCC(=O)c2[nH]c3ccccc3c21` (stereo not given): the TGI in the assay on HL-60(TB) leukemia, in the assay with 786-0 renal, with K-562 leukemia, with SNB-19 CNS, in the assay with TK-10 renal and in the assay on BT-549 breast was above 100 µM each time. In addition, the TGI with SF-268 CNS, with LOX IMVI melanoma, with MDA-MB-231 breast, in the assay on OVCAR-3 ovarian, in the assay on UACC-257 melanoma and in the assay on NCI-H522 lung was above 100 µM in each case. Moreover, in the assay on A549 NSCLC, the TGI is above 100 µM.

On to `CC(CC(C)[C@H]1CCC2[C@H]3C(CC(=O)[C@@]21C)[C@@]1(C)CCC(O)C[C@H]1C[C@@H]3O)C(=O)O` (stereo not given in full), for which the TGI with HL-60(TB) leukemia, in the assay on 786-0 renal, in the assay with K-562 leukemia, with SNB-19 CNS, with TK-10 renal and in the assay with BT-549 breast was above 100 µM each time. Moreover, the TGI with SF-268 CNS, with LOX IMVI melanoma, in the assay with MDA-MB-231 breast, with UACC-257 melanoma, with NCI-H522 lung and in the assay on A549 NSCLC was above 100 µM each time.

With `Cc1ccc(S(=O)(=O)OI(O)CC(F)(F)F)cc1`, the TGI with SK-OV-3 ovarian, with HL-60(TB) leukemia, in the assay with 786-0 renal, with K-562 leukemia, in the assay with TK-10 renal and in the assay with BT-549 breast was above 100 µM in each case. Further, the TGI with SF-268 CNS, in the assay with LOX IMVI melanoma, with MDA-MB-231 breast, with OVCAR-3 ovarian, in the assay with UACC-257 melanoma and in the assay with NCI-H522 lung was above 100 µM each time. Besides, the TGI with A549 NSCLC is above 100 µM.

On to `CC(C)N(C(=O)C12C3(C(=O)C(C)(C)C)C4C5(C#N)C3C1(C(=O)C(C)(C)C)C5C42C(=O)C(C)(C)C)C(C)C` (stereo not given), for which the TGI in the assay with HL-60(TB) leukemia, in the assay with 786-0 renal, in the assay on K-562 leukemia, in the assay on SNB-19 CNS, with TK-10 renal and in the assay on BT-549 breast was above 100 µM throughout. For the same compound, the TGI in the assay with SF-268 CNS, in the assay on LOX IMVI melanoma, in the assay with MDA-MB-231 breast, in the assay on OVCAR-3 ovarian, in the assay on UACC-257 melanoma and in the assay with NCI-H522 lung was above 100 µM throughout. This compound also returned a TGI in the assay with A549 NSCLC above 100 µM.

For `CC(C)(C)OC(=O)NC(Cc1ccc(OCc2ccccc2)cn1)C(N)=O` (stereo not given), the TGI in the assay on HL-60(TB) leukemia, in the assay on 786-0 renal, with K-562 leukemia, in the assay on SNB-19 CNS, with TK-10 renal and in the assay with BT-549 breast was above 100 µM each time. The TGI in the assay on SF-268 CNS, with LOX IMVI melanoma, in the assay on MDA-MB-231 breast, in the assay on OVCAR-3 ovarian, with UACC-257 melanoma and in the assay on NCI-H522 lung was above 100 µM in each case. The compound further registered a TGI in the assay on A549 NSCLC above 100 µM.

For the compound `CCNC1=C(NC(=O)c2ccc(OC)cc2)C(=O)c2ccccc2C1=O`, the TGI in the assay on SK-OV-3 ovarian, with HL-60(TB) leukemia, in the assay on 786-0 renal, with K-562 leukemia, in the assay with SNB-19 CNS and with TK-10 renal was above 100 µM each time. Moreover, the TGI was above 100 µM in the assay on BT-549 breast; above 100 µM with SF-268 CNS; above 100 µM in the assay on MDA-MB-231 breast; 87.7 µM in the assay on OVCAR-3 ovarian; 48 µM in the assay with UACC-257 melanoma; above 100 µM in the assay with NCI-H522 lung. Besides, the TGI with A549 NSCLC is above 100 µM.

For the compound `N#Cc1nc(-c2ccc(-c3nc(C#N)c(N)o3)cc2)oc1N`, the TGI in the assay on SK-OV-3 ovarian, in the assay on HL-60(TB) leukemia, in the assay on 786-0 renal, in the assay on K-562 leukemia, with SNB-19 CNS and in the assay on TK-10 renal was above 10 µM in each case. The TGI in the assay with BT-549 breast, in the assay on SF-268 CNS, in the assay on LOX IMVI melanoma, in the assay with MDA-MB-231 breast, in the assay with UACC-257 melanoma and in the assay on NCI-H522 lung was above 10 µM in each case. Also, the TGI with A549 NSCLC was above 10 µM.

For `COC(=O)/C=C1/OC(c2ccc(C)cc2C)=CC1=O`, the TGI is 33.1 µM in the assay with SK-OV-3 ovarian; above 100 µM in the assay on HL-60(TB) leukemia; 24.2 µM with 786-0 renal; 10.8 µM in the assay with K-562 leukemia; 31.3 µM in the assay with TK-10 renal; 29.9 µM in the assay with BT-549 breast. The TGI came to 48.9 µM in the assay with SF-268 CNS; 17.6 µM in the assay on LOX IMVI melanoma; 27.5 µM in the assay on MDA-MB-231 breast; 60.1 µM with OVCAR-3 ovarian; 43.3 µM in the assay on NCI-H522 lung.

As for `COc1cc(OC)c2nc(C)c3c(c2c1)OCC3`, the TGI in the assay with HL-60(TB) leukemia, in the assay on 786-0 renal, in the assay on K-562 leukemia, with SNB-19 CNS, with TK-10 renal and in the assay on BT-549 breast was above 100 µM each time. Further, the TGI with SF-268 CNS was above 100 µM; with LOX IMVI melanoma, above 100 µM; in the assay with MDA-MB-231 breast it was 52.9 µM; in the assay on OVCAR-3 ovarian, above 100 µM; in the assay with UACC-257 melanoma, above 100 µM; in the assay with NCI-H522 lung, above 100 µM. Besides, in the assay on A549 NSCLC, the TGI is above 100 µM.
